Reference: ChEMBL document CHEMBL4477263, “Nature-inspired design of tetraindoles: Optimization of the core structure and evaluation of structure-activity relationship” (Bioorg Med Chem Lett, 2016)
Activity calls are given as the source filed them. The rule behind the calls is not given here.

Experiments:
MDA-MB-231 [1] = assay: Antiproliferative activity against human MDA-MB-231 cells after 48 hrs by MTT assay; assay type: functional, cell-based; details: MDA-MB-231, 48 h
MDA-MB-231 [2] = assay: Antiproliferative activity against human MDA-MB-231 cells at 20 uM after 48 hrs by MTT assay; assay type: functional, cell-based
MIA PaCa-2 [3] = assay: Induction of apoptosis in human MIAPaCa2 cells assessed as early apoptotic cells at 0.6 uM after 24 hrs by Annexin V-FITC/propidium iodide staining based flow cytometry (reference value: 1.49%); assay type: functional
[4] = Toxicity in NOD/SCID mouse xenografted with human MIAPaCa2 cells assessed as body weight loss at 25 mg/kg, ip administered every 3.5 days per week for 5 weeks; assay type: organism-based; details: in vivo
MIA PaCa-2 [5] = assay: Induction of apoptosis in human MIAPaCa2 cells assessed as live cells at 0.6 uM after 36 hrs by Annexin V-FITC/propidium iodide staining based flow cytometry (reference value: 98%); assay type: functional
MIA PaCa-2 [6] = assay: Induction of apoptosis in human MIAPaCa2 cells assessed as early apoptotic cells at 0.6 uM after 12 hrs by Annexin V-FITC/propidium iodide staining based flow cytometry (reference value: 1%); assay type: functional
MIA PaCa-2 [7] = assay: Induction of apoptosis in human MIAPaCa2 cells assessed as necrotic cells at 0.6 uM after 12 hrs by Annexin V-FITC/propidium iodide staining based flow cytometry (reference value: 0.04%); assay type: functional
NCI-H460 = assay: Antiproliferative activity against human H460 cells after 48 hrs by MTT assay; assay type: functional, cell-based; details: NCI-H460, 48 h
MIA PaCa-2 [8] = assay: Induction of apoptosis in human MIAPaCa2 cells assessed as early apoptotic cells at 0.6 uM after 48 hrs by Annexin V-FITC/propidium iodide staining based flow cytometry (reference value: 1.28%); assay type: functional
MIA PaCa-2 [9] = assay: Induction of apoptosis in human MIAPaCa2 cells assessed as down regulation of Bcl-2 protein expression at 0.2 to 0.8 uM after 12 to 48 hrs by western immunoblot analysis; assay type: functional, cell-based
MIA PaCa-2 [10] = assay: Cell cycle arrest in human MIAPaCa2 cells assessed as accumulation in S phase at 0.6 uM after 24 hrs by propidium iodide staining based flow cytometry (reference value: 38%); assay type: functional
MIA PaCa-2 [11] = assay: Induction of apoptosis in human MIAPaCa2 cells assessed as upregulation of cleaved PARP protein expression at 0.2 to 0.8 uM after 12 to 48 hrs by western immunoblot analysis; assay type: functional, cell-based
MIA PaCa-2 [12] = assay: Induction of apoptosis in human MIAPaCa2 cells assessed as live cells at 0.6 uM after 48 hrs by Annexin V-FITC/propidium iodide staining based flow cytometry (reference value: 98.4%); assay type: functional
MIA PaCa-2 [13] = assay: Induction of apoptosis in human MIAPaCa2 cells assessed as early apoptotic cells at 0.6 uM after 36 hrs by Annexin V-FITC/propidium iodide staining based flow cytometry (reference value: 1.7%); assay type: functional
HCT-116 = assay: Antiproliferative activity against human HCT116 cells after 48 hrs by MTT assay; assay type: functional, cell-based; details: HCT-116, 48 h
MIA PaCa-2 [14] = assay: Induction of apoptosis in human MIAPaCa2 cells assessed as necrotic cells at 0.6 uM after 24 hrs by Annexin V-FITC/propidium iodide staining based flow cytometry (reference value: 0.06%); assay type: functional
MIA PaCa-2 [15] = assay: Induction of apoptosis in human MIAPaCa2 cells assessed as late apoptotic cells at 0.6 uM after 48 hrs by Annexin V-FITC/propidium iodide staining based flow cytometry (reference value: 0.21%); assay type: functional
MIA PaCa-2 [16] = assay: Antiproliferative activity against human MIAPaCa2 cells after 48 hrs by MTT assay; assay type: functional, cell-based; details: MIA PaCa-2, 48 h
MIA PaCa-2 [17] = assay: Induction of apoptosis in human MIAPaCa2 cells assessed as live cells at 0.6 uM after 24 hrs by Annexin V-FITC/propidium iodide staining based flow cytometry (reference value: 98.3%); assay type: functional
MIA PaCa-2 [18] = assay: Induction of apoptosis in human MIAPaCa2 cells assessed as necrotic cells at 0.6 uM after 48 hrs by Annexin V-FITC/propidium iodide staining based flow cytometry (reference value: 0.06%); assay type: functional
MIA PaCa-2 [19] = assay: Induction of apoptosis in human MIAPaCa2 cells assessed as down regulation of Bak protein expression at 0.2 to 0.8 uM after 12 to 48 hrs by western immunoblot analysis; assay type: functional, cell-based
MIA PaCa-2 [20] = assay: Cell cycle arrest in human MIAPaCa2 cells assessed as accumulation in G2/M phase at 0.6 uM after 24 hrs by propidium iodide staining based flow cytometry relative to control; assay type: functional
MIA PaCa-2 [21] = assay: Antitumor activity against human MIAPaCa2 cells xenografted in NOD/SCID mouse assessed as tumor growth inhibition at 25 mg/kg, ip administered every 3.5 days per week for 5 weeks measured on day 38 post treatment relative to control; assay type: functional; details: MIA PaCa-2, ip, read-out: TGI
MIA PaCa-2 [22] = assay: Induction of apoptosis in human MIAPaCa2 cells assessed as necrotic cells at 0.6 uM after 36 hrs by Annexin V-FITC/propidium iodide staining based flow cytometry (reference value: 0.06%); assay type: functional
MIA PaCa-2 [23] = assay: Cell cycle arrest in human MIAPaCa2 cells assessed as accumulation in G2/M phase at 0.6 uM after 36 hrs by propidium iodide staining based flow cytometry relative to control; assay type: functional
MIA PaCa-2 [24] = assay: Induction of apoptosis in human MIAPaCa2 cells assessed as late apoptotic cells at 0.6 uM after 24 hrs by Annexin V-FITC/propidium iodide staining based flow cytometry (reference value: 0.16%); assay type: functional
MIA PaCa-2 [25] = assay: Induction of apoptosis in human MIAPaCa2 cells assessed as late apoptotic cells at 0.6 uM after 12 hrs by Annexin V-FITC/propidium iodide staining based flow cytometry (reference value: 0.07%); assay type: functional
U-87 MG = assay: Antiproliferative activity against human U87 cells after 48 hrs by MTT assay; assay type: functional, cell-based, U-87MG ATCC
MIA PaCa-2 [26] = assay: Cell cycle arrest in human MIAPaCa2 cells assessed as accumulation in G2/M phase at 0.6 uM after 48 hrs by propidium iodide staining based flow cytometry relative to control; assay type: functional
MIA PaCa-2 [27] = assay: Induction of apoptosis in human MIAPaCa2 cells assessed as late apoptotic cells at 0.6 uM after 36 hrs by Annexin V-FITC/propidium iodide staining based flow cytometry (reference value: 0.24%); assay type: functional
[28] = Antiproliferative activity against human CL1-5 cells after 48 hrs by MTT assay; assay type: functional, cell-based; details: CL1-5, 48 h
Mahlavu = assay: Antiproliferative activity against human Mahlavu cells after 48 hrs by MTT assay; assay type: functional, cell-based
MIA PaCa-2 [29] = assay: Cell cycle arrest in human MIAPaCa2 cells assessed as accumulation in S phase at 0.6 uM after 36 hrs by propidium iodide staining based flow cytometry (reference value: 38%); assay type: functional
SK-HEP1 = assay: Antiproliferative activity against human SKHEP1 cells after 48 hrs by MTT assay; assay type: functional, cell-based; details: SK-HEP1, 48 h
A549 = assay: Antiproliferative activity against human A549 cells after 48 hrs by MTT assay; assay type: functional, cell-based; details: A549, 48 h
MIA PaCa-2 [30] = assay: Induction of apoptosis in human MIAPaCa2 cells assessed as live cells at 0.6 uM after 12 hrs by Annexin V-FITC/propidium iodide staining based flow cytometry (reference value: 98.9%); assay type: functional
MIA PaCa-2 [31] = assay: Cell cycle arrest in human MIAPaCa2 cells assessed as accumulation in S phase at 0.6 uM after 48 hrs by propidium iodide staining based flow cytometry (reference value: 19.7%); assay type: functional
NCI-H441 = assay: Antiproliferative activity against human H441 cells after 48 hrs by MTT assay; assay type: functional, cell-based; details: NCI-H441, 48 h

Oc1ccc2[nH]cc(C(c3ccc4ccc5ccc(C(c6c[nH]c7ccc(O)cc67)c6c[nH]c7ccc(O)cc67)nc5c4n3)c3c[nH]c4ccc(O)cc34)c2c1
IC50 (MDA-MB-231 [1]): > 20000 nM

Oc1ccc2[nH]cc(C(/C=C/c3ccc(C(CC(c4c[nH]c5ccc(O)cc45)c4c[nH]c5ccc(O)cc45)c4c[nH]c5ccc(O)cc45)cc3)c3c[nH]c4ccc(O)cc34)c2c1 (stereo not drawn)
IC50 (MDA-MB-231 [1]): > 20000 nM

Oc1ccc2[nH]cc(C(c3c[nH]c4ccc(O)cc34)c3c4c(c(C(c5c[nH]c6ccc(O)cc56)c5c[nH]c6ccc(O)cc56)c5ccccc35)CCCC4)c2c1
IC50 (MDA-MB-231 [1]): 1500 nM

Cc1cc(C(c2c[nH]c3ccc(O)cc23)c2c[nH]c3ccc(O)cc23)c(C)cc1C(c1c[nH]c2ccc(O)cc12)c1c[nH]c2ccc(O)cc12
IC50 (MDA-MB-231 [1]): 8000 nM

Oc1ccc2[nH]cc(C(c3c[nH]c4ccc(O)cc34)c3cccc4c(C(c5c[nH]c6ccc(O)cc56)c5c[nH]c6ccc(O)cc56)cccc34)c2c1
IC50 (MDA-MB-231 [1]): 4000 nM

Oc1ccc2[nH]cc(C(/C=C/c3ccc(/C=C/C(c4c[nH]c5ccc(O)cc45)c4c[nH]c5ccc(O)cc45)cc3)c3c[nH]c4ccc(O)cc34)c2c1
IC50 (MDA-MB-231 [1]): 2000 nM

Oc1ccc2[nH]cc(C(c3ccc(-c4cc(C(c5c[nH]c6ccc(O)cc56)c5c[nH]c6ccc(O)cc56)c(-c5ccc(C(c6c[nH]c7ccc(O)cc67)c6c[nH]c7ccc(O)cc67)cc5)cc4C(c4c[nH]c5ccc(O)cc45)c4c[nH]c5ccc(O)cc45)cc3)c3c[nH]c4ccc(O)cc34)c2c1
Activity (MDA-MB-231 [2]): inactive

Cc1c(C)c(C(c2c[nH]c3ccc(O)cc23)c2c[nH]c3ccc(O)cc23)c(C)c(C)c1C(c1c[nH]c2ccc(O)cc12)c1c[nH]c2ccc(O)cc12
IC50 (MDA-MB-231 [1]): 1020 nM

Oc1ccc2[nH]cc(C(c3c[nH]c4ccc(O)cc34)c3ccc(C(c4c[nH]c5ccc(O)cc45)c4c[nH]c5ccc(O)cc45)c4ccccc34)c2c1
IC50 (MDA-MB-231 [1]): 20000 nM

Oc1ccc2[nH]cc(C(Cc3ccc(CC(c4c[nH]c5ccc(O)cc45)c4c[nH]c5ccc(O)cc45)cc3)c3c[nH]c4ccc(O)cc34)c2c1
IC50 (MDA-MB-231 [1]): > 20000 nM

Oc1ccc2[nH]cc(C(c3c(F)c(F)c(C(c4c[nH]c5ccc(O)cc45)c4c[nH]c5ccc(O)cc45)c(F)c3F)c3c[nH]c4ccc(O)cc34)c2c1
IC50 (MDA-MB-231 [1]): 560 nM

Oc1ccc2[nH]cc(C(c3ccc(-c4ccc(C(c5c[nH]c6ccc(O)cc56)c5c[nH]c6ccc(O)cc56)cc4)cc3)c3c[nH]c4ccc(O)cc34)c2c1
IC50 (MDA-MB-231 [1]): 10000 nM

Oc1ccc2[nH]cc(C(c3ccc4cc(C(c5c[nH]c6ccc(O)cc56)c5c[nH]c6ccc(O)cc56)ccc4c3)c3c[nH]c4ccc(O)cc34)c2c1
IC50 (MDA-MB-231 [1]): > 20000 nM

Oc1ccc2[nH]cc(C(c3cc(Br)c(C(c4c[nH]c5ccc(O)cc45)c4c[nH]c5ccc(O)cc45)cc3Br)c3c[nH]c4ccc(O)cc34)c2c1
IC50 (MDA-MB-231 [1]): 2450 nM

Oc1ccc2[nH]cc(C(c3ccc4ccc(C(c5c[nH]c6ccc(O)cc56)c5c[nH]c6ccc(O)cc56)cc4c3)c3c[nH]c4ccc(O)cc34)c2c1
IC50 (MDA-MB-231 [1]): > 20000 nM

Oc1ccc2[nH]cc(C(c3c(Cl)c(Cl)c(C(c4c[nH]c5ccc(O)cc45)c4c[nH]c5ccc(O)cc45)c(Cl)c3Cl)c3c[nH]c4ccc(O)cc34)c2c1
Activity (MIA PaCa-2 [3]): 2.1% | Activity [4]: Non-Toxic | Activity (MIA PaCa-2 [5]): 95.6% | Activity (MIA PaCa-2 [6]): 0.71% | Activity (MIA PaCa-2 [7]): 0.09% | IC50 (NCI-H460): 830 nM | Activity (MIA PaCa-2 [8]): 5.28% | IC50 (MDA-MB-231 [1]): 560 nM | Activity (MIA PaCa-2 [9]): Active | Activity (MIA PaCa-2 [10]): 55.8% | Activity (MIA PaCa-2 [11]): Active | Activity (MIA PaCa-2 [12]): 93.3% | Activity (MIA PaCa-2 [13]): 3.21% | IC50 (HCT-116): 1320 nM | Activity (MIA PaCa-2 [14]): 0.03% | Activity (MIA PaCa-2 [15]): 1.18% | IC50 (MIA PaCa-2 [16]): 190 nM | Activity (MIA PaCa-2 [17]): 97.6% | Activity (MIA PaCa-2 [18]): 0.23% | Activity (MIA PaCa-2 [19]): Active | Activity (MIA PaCa-2 [20]): 12% | inhibition in vivo at 25 mg/kg (MIA PaCa-2 [21]): 35% | Activity (MIA PaCa-2 [22]): 0.2% | Activity (MIA PaCa-2 [23]): 16% | Activity (MIA PaCa-2 [24]): 0.3% | Activity (MIA PaCa-2 [25]): 0.58% | IC50 (U-87 MG): > 5000 nM | Activity (MIA PaCa-2 [26]): 20% | Activity (MIA PaCa-2 [27]): 0.96% | IC50 [28]: 630 nM | IC50 (Mahlavu): 3500 nM | Activity (MIA PaCa-2 [29]): 51.4% | IC50 (SK-HEP1): 470 nM | IC50 (A549): 2440 nM | Activity (MIA PaCa-2 [30]): 98.6% | Activity (MIA PaCa-2 [31]): 46.4% | IC50 (NCI-H441): 600 nM

Oc1ccc2[nH]cc(C(c3c[nH]c4ccc(O)cc34)c3c4ccccc4c(C(c4c[nH]c5ccc(O)cc45)c4c[nH]c5ccc(O)cc45)c4ccccc34)c2c1
IC50 (MDA-MB-231 [1]): 710 nM
